EP1282604B1, “SUBSTITUTED CAPROLACTAM CARBONATES AND ETHERS AND THEIR USE AS ANTI-TUMOR AGENTS” (Novartis AG, priority 2000, dated 2001)
Like-named read-outs stand apart in the source and are kept apart here.

Columns and labels:
[1] = test system: MDA-MB-435 tumor xenografts; test: Human tumor xenograft growth inhibition in athymic nude mice; format: in vivo; settings: 3X/week for 3 weeks; for %T/C: * = p<0.05
Protocol: (§1) Utilizing this model, one can measure the ability of test compounds to inhibit the growth of human tumor xenografts growing subcutaneously (s.c.) in athymic nude mice. The histologic tumor type employed was MDA-MB-435 breast carcinoma for Ex.1 and 7 and A549 non-small cell lung carcinoma for Ex. 1-3.
MDA-MB-435 human breast carcinoma: Treatments were started 15 d post implantation (3 x 10^6 cells/mouse), when a mean tumor volume of approximately 45 mm^3 was reached. Ex.1 and 7 were administered iv at three times per week for 3 weeks (days 15, 17, 20, 22, 24, 27, 29, and 31), at 3.3, 10, and 33 µmol/kg. Doxorubicin was administered iv at 2 mg/kg using the same schedule. Each data point represents tumor growth (mean ± SEM), or body weight (mean), with an initial group size of n = 8, from a representative experiment performed twice. An asterisk (*) indicates p < 0.05 using a one-tailed Student's t-test.
(§2) Toxicity was monitored by recording average group body weights twice weekly, and by daily observation of general health. Efficacy was monitored by taking measurements of tumor length, width, and depth weekly using digital calipers coupled to automated data collectors. Mean tumor volume (MTV) at initiation of therapy was subtracted from final MTV in order to express the actual tumor growth during treatment (A MTV). Anti-tumor activity was expressed as %T/C (A MTV of treated group ÷ Δ MTV of control group X100%). Statistical significance was evaluated using a one-tailed Student's t-test (p<0.05).

[2] = test system: MDA-MB-435 human breast carcinoma; test: Anchorage Dependent Growth Monolayer Assay (ADGMA), MTS readout; format: cell-based; settings: 3-day exposure, MDA-MB-435 cells, read-out: IC50 values (average ± S.D.) MDA-MB-435
Description: (§3) As indicated above, all of the compounds of formula I, and their corresponding pharmaceutically acceptable acid addition salts, are anti-tumor agents and are, therefore, useful in inhibiting the growth of various lymphomas, sarcomas, carcinomas, myelomas, and leukemia cell lines. […] This assay was adapted from the 60 cell line assay used by the National Cancer Institute (NCl) with the following modifications: 1) cell lines representative for the important tumor types, viz., MDA-MB-435 human breast, A549 non-small cell lung, H1299 lung, HCT-116 colon and PC-3 prostate carcinomas, and U2OS osteosarcomas were utilized; and 2) a tetrazolium derivative, viz., 3-(4,5-dimethylthiazol-2-yl)-5-(3-carboxymethoxyphenyl)-2-(4-sulfophenyl)-2H-tetrazolium, inner salt (MTS), was utilized to determine cell density.
(§4) The ADGMA compares the number of viable cells following a 3-day exposure to a test compound relative to a number of cells present at the time the test compound was added. […] The absorbance at 490 nm (A490) of the formazan derivative is proportional to the number of viable cells. The IC50 for a test compound is the concentration of compound required to reduce the final cell number to 50% of the final control cell number. If cell proliferation is inhibited, the assay further defines compounds as cytostatic (cell number after 3-day compound incubation >cell number at time of compound addition) or cytotoxic (cell number after 3-day compound incubation <cell number at time of compound addition).
(§5) The MDA-MB-435 human breast carcinoma and the A549 non-small cell lung carcinoma lines were obtained from the American Type Culture Collection (ATCC) and used between passages 4-20 following thawing. MDA-MB-435 human breast carcinoma and A549 non-small cell lung carcinoma cells were maintained and plated in DME/F12 medium containing 10% fetal bovine serum, 15 mM HEPES (pH=7.4), 100 units/mL penicillin, and 100 µg/mL streptomycin.
(§6) Cell lines are trypsinized and counted using a Coulter counter to determine plating densities. Cells are then plated in their respective maintenance media (100 µL/well) in 96 well plates at the following densities: MDA-MB-435 and U2OS, 3,000 cells/well; A549 and HCT-116, 700 cells/well; H1299, 1,000 cells/well; and PC-3, 2500 cells/well. The number of cells plates as determined in preliminary experiments, results in cell densities of 75-90% of confluency by 4 days after plating. Initial cell densities, assayed one day after plating, are roughly 0.15-0.20 absorbance units greater than the media blank. Ninety-six well plates are seeded on day 0 and the test compounds are added on day 1. A control plate is created for each cell line that receives media only in row A and cells in row B. One day following plating, test compounds are added (in a final volume of 100 µL) to the test plates. Control plates receive 10 µL MTS mixture (prepared fresh on day of addition to cell plates at a ratio of 10 µL of a 0.92 mg/mL solution of PMS to a 190 µL of a 2 mg/mL solution of MTS) and 100 µL media. A490 of control plates is read 4 h after MTS addition to determine initial cell density values for each cell line. Three days after addition of test compound, 10 µL/well of MTS mixture is added to the test plates and A490 is read 4 h later. A490 values for wells containing cells are corrected for media absorbance, then normalized to initial density readings to determine percent net growth. IC50 values are determined from graphs of percent net growth as a function of compound concentration. Percent net growth is calculated as (Cell + Drug A490 - Initial A490/Cell + Drug Vehicle A490 - Initial A490) x 100%.

A549 tumor xenografts = test: Human tumor xenograft growth inhibition in athymic nude mice; format: in vivo; settings: 5X/week for 2 weeks; for Δ MTV / %T/C: recorded on day 24; for %T/C: * = p<0.05
Protocol: as §1
A549 non-small cell lung carcinoma: Treatments were started 17 d post-implantation (1 x 10^7 cells/mouse), when a mean tumor volume of approximately 120 mm^3 was reached. Ex. 1-3 were administered iv on days 17-21 (followed by 2 d rest, then a second cycle of treatment on days 24-28). Total daily doses of 10 or 30 µmol/kg were administered as a single injection. Data in this table were recorded on day 24, 3 d after the last treatment of the first cycle. An asterisk (*) indicates p < 0.05 using a one-tailed Student's t-Test.
as §2

U2OS osteosarcoma = test: Anchorage Dependent Growth Monolayer Assay (ADGMA), MTS readout; format: cell-based; settings: 3-day exposure, U2OS cells, read-out: IC50 values (average ± S.D.) U2OS
Description: as §3, §4
(§7) The H1299 lung, HCT-116 colon, and PC-3 prostate carcinoma cell lines, and U2OS osteosarcoma cell line were obtained from the American Type Culture Collection (ATCC) and used between passages 4-20 following thawing. H1299 and HCT-116 cells were maintained in RPMI 1640 containing 10% FBS, 100 units/mL penicillin and 100 µg/mL streptomycin; PC-3 cells were maintained in Kahn's Modification containing 10% FBS, 100 units/mL penicillin and 100 µg/mL streptomycin; and U2OS cells were maintained in DMEM containing 10% FBS, 100 units/mL penicillin and 100 µg/mL streptomycin.
as §6

HCT-116 colon carcinoma = test: as above; format: cell-based; settings: 3-day exposure, HCT-116 cells, read-out: IC50 values (average ± S.D.) HCT-116
Description: as §3, §4, §7, §6

H1299 lung carcinoma = test: as above; format: cell-based; settings: 3-day exposure, H1299 cells, read-out: IC50 values (average ± S.D.) H1299
Description: as §3, §4, §7, §6

[3] = test system: A549 non-small cell lung carcinoma; test: as above; format: cell-based, human; settings: 3-day exposure, A549 cells, read-out: IC50 values (average ± S.D.) A549
Description: as §3, §4, §5, §6

Structure (SMILES): CCCCCCCCCCCOCC(=O)O[C@@H]1CC[C@H](NC(=O)[C@H](OC)[C@H](O)[C@@H](O)[C@H](O)/C=C/C(C)(C)C)C(=O)NC1 [Ex. 7, (2R, 3R, 4S, 5R, 6E)-3,4,5-trihydroxy-2-methoxy-8,8-dimethyl-N-[(3S, 6R)-hexahydro-2-oxo-6-([[undecyloxy]acetyl]oxy)-2H-azepin-3-yl]non-6-enonamide]
- Dead/Total ([1]; 3.3 µmol/kg iv): 0/8
- Δ MTV ([1]; 3.3 µmol/kg iv): 165 mm^3
- %T/C ([1]; 3.3 µmol/kg iv): 102%
- Dead/Total ([1]; 10 µmol/kg iv): 0/8
- Δ MTV ([1]; 10 µmol/kg iv): 103 mm^3
- %T/C ([1]; 10 µmol/kg iv): 64%
- Dead/Total ([1]; 33 µmol/kg iv): 0/8
- Δ MTV ([1]; 33 µmol/kg iv): 48 mm^3
- %T/C ([1]; 33 µmol/kg iv): 30* %

Structure (SMILES): CCCCCCCCCCOC(=O)O[C@@H]1CC[C@H](NC(=O)[C@H](OC)[C@H](O)[C@@H](O)[C@H](O)/C=C/C(C)(C)C)C(=O)NC1 [Ex. 1, (2R, 3R, 4S, 5R, 6E)-3,4,5-trihydroxy-2-methoxy-8,8-dimethyl-N-[(3S, 6R)-hexahydro-2-oxo-6-([[decyloxy]carbonyl]oxy)-2H-azepin-3-yl]non-6-enonamide]
- IC50 ([2]; Homo sapiens, 72 h): 210 ± 140 nM
- Dead/Total (A549 tumor xenografts; 10 µmol/kg iv daily): 0/8
- Δ MTV (A549 tumor xenografts; 10 µmol/kg iv daily): 95 mm^3
- %T/C (A549 tumor xenografts; 10 µmol/kg iv daily): 73%
- Dead/Total (A549 tumor xenografts; 30 µmol/kg iv daily): 0/8
- Δ MTV (A549 tumor xenografts; 30 µmol/kg iv daily): 39 mm^3
- %T/C (A549 tumor xenografts; 30 µmol/kg iv daily): 30* %
- IC50 (U2OS osteosarcoma; Homo sapiens, 72 h): > 1000 nM
- IC50 (HCT-116 colon carcinoma; Homo sapiens, 72 h): 530 ± 350 nM
- IC50 (H1299 lung carcinoma; Homo sapiens, NCI-H1299, 72 h): 570 ± 220 nM
- Dead/Total ([1]; 3.3 µmol/kg iv): 0/8
- Δ MTV ([1]; 3.3 µmol/kg iv): 132 mm^3
- %T/C ([1]; 3.3 µmol/kg iv): 74* %
- Dead/Total ([1]; 10 µmol/kg iv): 0/8
- Δ MTV ([1]; 10 µmol/kg iv): 162 mm^3
- %T/C ([1]; 10 µmol/kg iv): 90%
- Dead/Total ([1]; 33 µmol/kg iv): 0/8
- Δ MTV ([1]; 33 µmol/kg iv): 79 mm^3
- %T/C ([1]; 33 µmol/kg iv): 44* %

Structure (SMILES): CO[C@@H](C(=O)N[C@H]1CC[C@@H](OC(=O)OCC(C)(C)C)CNC1=O)[C@H](O)[C@@H](O)[C@H](O)/C=C/C(C)(C)C [Ex. 5, (2R, 3R, 4S, 5R, 6E)-3,4,5-trihydroxy-2-methoxy-8,8-dimethyl-N-[(3S, 6R)-hexahydro-2-oxo-6-([[2,2-dimethylpropoxy]carbonyl]oxy)-2H-azepin-3-yl]non-6-enonamide]
- IC50 ([3]; Homo sapiens, 72 h): 138 ± 8 nM
- IC50 ([2]; Homo sapiens, 72 h): 120 ± 20 nM
- IC50 (U2OS osteosarcoma; Homo sapiens, 72 h): 620 ± 160 nM
- IC50 (HCT-116 colon carcinoma; Homo sapiens, 72 h): 270 ± 100 nM
- IC50 (H1299 lung carcinoma; Homo sapiens, NCI-H1299, 72 h): 360 ± 120 nM

Structure (SMILES): CCCCCOC(=O)O[C@@H]1CC[C@H](NC(=O)[C@H](OC)[C@H](O)[C@@H](O)[C@H](O)/C=C/C(C)(C)C)C(=O)NC1 [Ex. 2, (2R, 3R, 4S, 5R, 6E)-3,4,5-trihydroxy-2-methoxy-8,8-dimethyl-N-[(3S, 6R)-hexahydro-2-oxo-6-([[pentyloxy]carbonyl]oxy)-2H-azepin-3-yl]non-6-enonamide]
- IC50 [3]: 117 ± 20 nM
- IC50 [2]: 70 ± 20 nM
- Dead/Total (A549 tumor xenografts; 10 µmol/kg iv daily): 0/8
- Δ MTV (A549 tumor xenografts; 10 µmol/kg iv daily): 42 mm^3
- %T/C (A549 tumor xenografts; 10 µmol/kg iv daily): 32* %
- Dead/Total (A549 tumor xenografts; 30 µmol/kg iv daily): 0/8
- Δ MTV (A549 tumor xenografts; 30 µmol/kg iv daily): 60 mm^3
- %T/C (A549 tumor xenografts; 30 µmol/kg iv daily): 46* %
- IC50 (U2OS osteosarcoma): 90 ± 30 nM
- IC50 (HCT-116 colon carcinoma): 170 ± 100 nM
- IC50 (H1299 lung carcinoma): 210 ± 170 nM

Structure (SMILES): CO[C@@H](C(=O)N[C@H]1CC[C@@H](OC(=O)OCCc2ccccc2)CNC1=O)[C@H](O)[C@@H](O)[C@H](O)/C=C/C(C)(C)C [Ex. 3, (2R, 3R, 4S, 5R, 6E)-3,4,5-trihydroxy-2-methoxy-8,8-dimethyl-N-[(3S, 6R)-hexahydro-2-oxo-6-([[2-phenylethoxy]carbonyl]oxy)-2H-azepin-3-yl]non-6-enonamide]
- IC50 ([3]; Homo sapiens, 72 h): 132 ± 20 nM
- IC50 ([2]; Homo sapiens, 72 h): 80 ± 30 nM
- Dead/Total (A549 tumor xenografts; 10 µmol/kg iv daily): 0/8
- Δ MTV (A549 tumor xenografts; 10 µmol/kg iv daily): 106 mm^3
- %T/C (A549 tumor xenografts; 10 µmol/kg iv daily): 82%
- Dead/Total (A549 tumor xenografts; 30 µmol/kg iv daily): 0/8
- Δ MTV (A549 tumor xenografts; 30 µmol/kg iv daily): 55 mm^3
- %T/C (A549 tumor xenografts; 30 µmol/kg iv daily): 42* %
- IC50 (U2OS osteosarcoma; Homo sapiens, 72 h): 310 ± 40 nM
- IC50 (HCT-116 colon carcinoma; Homo sapiens, 72 h): 160 ± 30 nM
- IC50 (H1299 lung carcinoma; Homo sapiens, NCI-H1299, 72 h): 330 ± 270 nM

Structure (SMILES): CO[C@@H](C(=O)N[C@H]1CC[C@@H](OC(=O)OC2CCCCC2)CNC1=O)[C@H](O)[C@@H](O)[C@H](O)/C=C/C(C)(C)C [Ex. 6, (2R, 3R, 4S, 5R, 6E)-3,4,5-trihydroxy-2-methoxy-8,8-dimethyl-N-[(3S, 6R)-hexahydro-2-oxo-6-([[cyclohexyloxy]carbonyl]oxy)-2H-azepin-3-yl]non-6-enonamide]
- IC50 ([3]; Homo sapiens, 72 h): 441 ± 63 nM
- IC50 ([2]; Homo sapiens, 72 h): 350 ± 110 nM
- IC50 (U2OS osteosarcoma; Homo sapiens, 72 h): 770 ± 400 nM
- IC50 (HCT-116 colon carcinoma; Homo sapiens, 72 h): 400 ± 120 nM
- IC50 (H1299 lung carcinoma; Homo sapiens, NCI-H1299, 72 h): 570 ± 290 nM
